Assay results from patent US8790654B2, “Glycosylceramide adjuvant for saccharide antigens” (Novartis AG, priority 2004, dated 2014).

System: CRM protein carrier
Assay: CRM-specific Ig titre in mice immunised with MenC-CRM conjugate with or without α-GalCer
Type: in vivo
Details: MenC-CRM conjugate and α-GalCer, compared with conjugate alone; 2wp2 and 2wp3
Experimental: C) Immunisation schedule for mice with different polysaccharides, plain, conjugated or admixed with protein carriers, with and without α-GalCer. Ten groups of wild-type C57BL/6 mice were primed on day 0 with: 1) PBS, 2) 0.1 μg with α-GalCer, 3) 10 μg MenC polysaccharide, 4) 20 μg CRM protein carrier, 5) 30 μg of a MenC-CRM conjugate, 6) 10 μg MenC polysaccharide admixed with CRM protein carrier, or the compositions in 3)-6) and α-GalCer (groups 7-10). Mice were boosted two and four weeks after they were primed with the same composition with which they were primed. Mice were bled 2, 4 and 6 weeks after initial priming (2wp1, 2wp2 and 2wp3) and the levels of antibodies against both the MenC polysaccharide and the CRM carrier were measured.
FIG. 5: α-GalCer enhances the specific antibody response against both the MenC polysaccharide and the CRM protein carrier in a MenC-CRM conjugate. Wild-type mice were primed with 10 μg MenC polysaccharide, 20 μg CRM protein carrier, 10 μg MenC polysaccharide admixed with CRM protein carrier (MenC+CRM), or 30 μg of a MenC-CRM conjugate, or the same compositions with α-GalCer. Mice were boosted two and four weeks after they were primed with the same composition with which they were primed.

**Q.** For `CCCCCCCCCCCCCCCCCCCCCCCCCC(=O)N[C@@H](CO[C@H]1O[C@H](CO)[C@H](O)[C@H](O)[C@H]1O)[C@H](O)[C@H](O)CCCCCCCCCCCCCC` [α-GalCer, α-galactosylceramide], which “CRM-specific Ig titre” value is on record?
**A.** enhanced
